{"source": "patent US20040204487A1", "about": "“Novel medicinal product” (priority 2002, published 2004)", "key": {"[1]": {"system": "BFC-115 pre-adipocyte cells", "assay": "Triacylglyceride accumulation in differentiating BFC-115 pre-adipocytes", "type": "cell-based, murine", "conditions": "7 days; for Amount of TAG in μg/mg of protein: control 0.45; for inhibition of the differentiation of the pre-adipocytes: 10 μM", "procedure": "The pre-adipocyte lines 3T3-F442A (commercial line) and BFC 115 (from Claude Forest INSERM, St. Pères Paris V) are cultured until confluency in Dulbecco's modified Eagle medium (DMEM) (Gibco) in the presence of 5% of newborn calf serum and 5% of fetal calf serum (Gibco). From confluency, the cells are cultured in a differentiating medium (DMEM with 10% of fetal calf serum and 20 nM of insulin) in the presence or absence of the metabolites to be tested. The medium is renewed every two or three days. The differentiation of the cells is evaluated either by morphological criteria (very rounded cells having accumulated large lipid vacuoles) or by measuring the average amount of triglycerides per cell (ratio of the amount of triglyceride per dish to the amount of protein per dish). Under standard culture conditions, in 8 days, 90% of the pre-adipocytes have differentiated to adipocytes. […] The BFC-115 pre-adipocyte cells were treated from confluency with 12(R)-HETE (10 μM), 12(S)-HETE (10 μM), 11,12-EET (10 μM) and with arachidonic acid AA (100 μM). The cell differentiation was evaluated after 7 days by measuring the amount of triacylglycerides accumulated per mg of protein."}, "3T3-F442A cells [2]": {"system": "3T3-F442A cells", "assay": "Direct morphological examination of differentiation of fibroblasts to adipocytes", "type": "cell-based, murine", "procedure": "The differentiation of the cells is evaluated either by morphological criteria (very rounded cells having accumulated large lipid vacuoles) or by measuring the average amount of triglycerides per cell (ratio of the amount of triglyceride per dish to the amount of protein per dish). Under standard culture conditions, in 8 days, 90% of the pre-adipocytes have differentiated to adipocytes. To show by direct morphological examination the differentiation of the fibroblasts to adipocytes in the presence or absence of the metabolites 12-HETE and/or 11,12-EET, the following procedure was carried out. The 3T3-F442A cells are treated, from confluency, with these metabolites. The treatment was renewed every 2 or 3 days throughout the entire differentiation process. The level of differentiation of the cells was evaluated by observation under a photon microscope with a 200 times magnification (see the photos shown in figures FIG. 1A, FIG. 1A1, FIG. 1B and FIG. 1B1)."}, "3T3-F442A cells [3]": {"system": "3T3-F442A cells", "assay": "Triacylglyceride accumulation in differentiating 3T3-F442A pre-adipocytes", "type": "cell-based, murine", "conditions": "for Triacylglycerides (μg/mg protein): 10 μM from confluency, control (no treatment) 0.16; for Triacylglycerides (μg/mg protein) / inhibition of cell differentiation (in words) / concentration of TAGs in the adipocytes, % relative to the control: 7 days; for inhibition of cell differentiation (in words): 10 μM; for concentration of TAGs in the adipocytes, % relative to the control: control 100% (FIG. 2)", "procedure": "The pre-adipocyte lines 3T3-F442A (commercial line) and BFC 115 (from Claude Forest INSERM, St. Pères Paris V) are cultured until confluency in Dulbecco's modified Eagle medium (DMEM) (Gibco) in the presence of 5% of newborn calf serum and 5% of fetal calf serum (Gibco).\nFrom confluency, the cells are cultured in a differentiating medium (DMEM with 10% of fetal calf serum and 20 nM of insulin) in the presence or absence of the metabolites to be tested.\nThe medium is renewed every two or three days.\nThe differentiation of the cells is evaluated either by morphological criteria (very rounded cells having accumulated large lipid vacuoles) or by measuring the average amount of triglycerides per cell (ratio of the amount of triglyceride per dish to the amount of protein per dish). Under standard culture conditions, in 8 days, 90% of the pre-adipocytes have differentiated to adipocytes.\nThe cells are washed with PBS phosphate buffer (Sigma), recovered from the bottom of the Petri dish by scraping with a spatula, fragmented by ultrasound (2 seconds) and then centrifuged at 10000 g for 20 minutes.\nThe centrifugation supernatant is removed for triacylglyceride (TAG) analysis.\nTo determine the average amount of triglycerides per cell at the end of the abovementioned experiments, an automated enzymatic colorimetric test (Roche method) which is based on the studies of Wahlefeld (Wahlefeld and Bergmeyer (eds). Methods of Enzymatic Analysis. 2 second edition. New York Academic Press Inc. 1974: 1831) was used as assaying method.\nThe 3T3-F442A pre-adipocyte cells were treated from confluency with 12(R)-HETE (10 μM), 12(S)-HETE (10 μM), 11,12-EET (10 μM) and with Δ 15-deoxy prostaglandin J2 (10 μM, Δ 15-deoxyPGJ2) in the presence or absence of 10 μM of 12(R)-HETE. The cell differentiation was evaluated after 7 days by measuring, as indicated above, the amount of triacylglycerides accumulated per mg of protein.\nTo do this, 3T3-F442A fibroblasts, or pre-adipocyte cells, were treated from confluency with various concentrations of 12(R)-HETE. The cell differentiation was evaluated after 7 days by measuring the amount of triacylglycerides (TAGs) accumulated per mg of protein (prot)."}, "[4]": {"system": "cells from human adipose tissue", "assay": "Triglyceride accumulation in cells from human adipose tissue", "type": "cell-based", "conditions": "10 μM, pro-differentiating medium, three experiments", "text": "In addition, cells originating from human fat tissues subsequent to surgical interventions requiring their removal were used. The removed tissues are collected on a bed of ice and immediately treated in the laboratory. The cell culture consists of a mixture of pre-adipocyte cells and adipocyte cells already differentiated."}, "[5]": {"system": "differentiated 3T3-F442A cells", "assay": "Residual level of metabolite in culture medium of differentiated cells (LC-MS)", "type": "in vitro ADME, murine", "conditions": "10 μM", "procedure": "It was also determined that the residual level of 12(R)-HETE, present at a concentration of 10 μM in the culture medium of the differentiated 3T3-F442A cells, is respectively 85% and 2.3% after 6 h and 18 h of incubation.\nThe residual amounts of 12(R)-HETE were analyzed by LC-MS."}, "[6]": {"assay": "Cellular toxicity markers after 8 days of treatment", "type": "cell-based", "conditions": "30 μM", "procedure": "The possible toxicity of the metabolites selected in accordance with the invention was also studied.\nFor this purpose, several cellular toxicity markers were measured after 8 days of treatment, namely\nthe LDH (lactate dehydrogenase) activity in the culture medium, a control for membrane permeabilization,\nfragmentation of the nucleus by “Hoechst” staining, which is a marker for apoptosis and which is described in Leukemia, 15, 1572-81. Plenchette, S., Moutet M., Benguella M., N'Gondara J. P., Guigner F., Coffe C., Corcos L., Bettaieb A. and Solary E. (2001)."}, "[7]": {"system": "pre-adipocyte fibroblasts", "conditions": "cited from earlier work"}}, "note": "Entries after “also recorded” stand apart in the source; their conditions may differ.", "data": [{"smiles": "CCCCC/C=C\\C/C=C\\C/C=C\\C/C=C\\CCCC(=O)O", "note": "[AA, arachidonic acid, reference compound]", "values": [{"measurement": "Amount of TAG in μg/mg of protein", "setting": "[1]; 100 μM from confluency", "result": "=0.55 μg/mg of protein"}, {"measurement": "effect on differentiation (in words)", "setting": "[1]; 100 μM", "result": "clearly promotes the differentiation"}, {"measurement": "cell morphology under photon microscope", "setting": "3T3-F442A cells [2]; 100 μM from confluency (FIG. 1B)", "result": "increases the amount of cells differentiated into adipocytes"}]}, {"smiles": "CCCCC/C=C\\CC1OC1C/C=C\\C/C=C\\CCCC(=O)O", "note": "(stereo not drawn) [11,12-EET, 11,12-epoxyeicosatrienoic acid]", "values": [{"measurement": "Triacylglycerides (μg/mg protein)", "setting": "3T3-F442A cells [3]", "result": 0.08, "unit": "μg/mg protein"}, {"measurement": "inhibition of cell differentiation (in words)", "setting": "3T3-F442A cells [3]", "result": "greatly inhibit the cell differentiation"}, {"measurement": "Amount of TAG in μg/mg of protein", "setting": "[1]; 10 μM from confluency", "result": "=0.22 μg/mg of protein"}, {"measurement": "inhibition of the differentiation of the pre-adipocytes", "setting": "[1]", "result": "approximately 40%"}, {"measurement": "inhibition of the accumulation of triglycerides", "setting": "[4]", "result": 50, "unit": "%"}]}, {"smiles": "CCCCC/C=C\\C[C@@H](O)/C=C/C=C\\C/C=C\\CCCC(=O)O", "note": "[12(S)-HETE, 12-hydroxyeicosatetraenoic acid]", "values": [{"measurement": "Triacylglycerides (μg/mg protein)", "setting": "3T3-F442A cells [3]", "result": 0.07, "unit": "μg/mg protein"}, {"measurement": "inhibition of cell differentiation (in words)", "setting": "3T3-F442A cells [3]", "result": "greatly inhibit the cell differentiation"}, {"measurement": "Amount of TAG in μg/mg of protein", "setting": "[1]; 10 μM from confluency", "result": "=0.28 μg/mg of protein"}, {"measurement": "inhibition of the differentiation of the pre-adipocytes", "setting": "[1]", "result": "approximately 40%"}]}, {"smiles": "CCCCC/C=C\\C[C@@H](O)/C=C/C=C\\C/C=C\\CCCC(=O)O", "note": "[12(R)-HETE, 12-hydroxyeicosatetraenoic acid]", "values": [{"measurement": "concentration of TAGs in the adipocytes, % relative to the control", "setting": "3T3-F442A cells [3]; 5 μM", "result": "approximately 85%"}, {"measurement": "inhibition of the differentiation induced by Δ 15-deoxyprostaglandin J2", "setting": "3T3-F442A cells [3]; 10 μM 12(R)-HETE with 10 μM 15-deoxyPGJ2, 7 days", "result": "approximately 40%"}, {"measurement": "Triacylglycerides (μg/mg protein)", "setting": "3T3-F442A cells [3]", "result": 0.04, "unit": "μg/mg protein"}, {"measurement": "inhibition of cell differentiation (in words)", "setting": "3T3-F442A cells [3]", "result": "greatly inhibit the cell differentiation; also recorded: greater than that of 12(S)-HETE"}, {"measurement": "concentration of TAGs in the adipocytes, % relative to the control", "setting": "3T3-F442A cells [3]; 30 μM", "result": "approximately 25%"}, {"measurement": "Amount of TAG in μg/mg of protein", "setting": "[1]; 10 μM from confluency", "result": "=0.17 μg/mg of protein"}, {"measurement": "inhibition of the differentiation of the pre-adipocytes", "setting": "[1]", "result": "approximately 40%"}, {"measurement": "cell morphology under photon microscope", "setting": "3T3-F442A cells [2]; 10 μM, 7 days, with or without 100 μM arachidonic acid (FIG. 1A1, 1B1)", "result": "spindle-shaped with very few lipid globules"}, {"measurement": "penetration into the cells (conclusion from residual level)", "setting": "[5]", "result": "clearly penetrates into the cells"}, {"measurement": "residual level in the culture medium", "setting": "[5]; after 6 h of incubation", "result": 85, "unit": "%"}, {"measurement": "residual level in the culture medium", "setting": "[5]; after 18 h of incubation", "result": 2.3, "unit": "%"}, {"measurement": "inhibition of the accumulation of triglycerides", "setting": "[4]", "result": 50, "unit": "%"}, {"measurement": "cellular toxicity markers (number of cells, cell morphology, LDH activity in medium, fragmentation of the nucleus by Hoechst staining)", "setting": "[6]", "result": "None of these markers responds positively"}]}, {"smiles": "CCCCC/C=C/C=C1/C(=O)C=C[C@@H]1C/C=C\\CCCC(=O)O", "note": "[15-deoxyPGJ2, 15-deoxy-Δ^12,14-prostaglandin J2, reference compound]", "values": [{"measurement": "Triacylglycerides (μg/mg protein)", "setting": "3T3-F442A cells [3]", "result": 0.52, "unit": "μg/mg protein"}, {"measurement": "concentrations at which differentiation is accelerated", "setting": "[7]", "result": "10^−5 to 10^−6 M"}]}]}
